This note sets out measurements from patent US10259815B2, “Gabaergic ligands and their uses” (UWM Research Foundation, Inc., priority 2015, dated 2019).

Structures are written as SMILES. Entries after “also recorded” stand apart in the source; their conditions may differ.

Format in all cases: in vivo
Series [1] deals with Male Sprague-Dawley rats. The series is described as follows: PTZ-induced seizure threshold. On the procedure: (§1) Results were analyzed using ANOVA (Dunnett's test: *P<0.05).
After a pretreatment of test compound, MET was intravenously administered to a test subject until a convulsions were observed.
Each animal was used only once and was euthanized post testing. Results were analyzed using ANOVA (Dunnett's test: *P<0.05).

For series [2], the system named is Male Sprague-Dawley rats. The series is described as follows: scMET-induced seizure protection, rats. As to conditions: i.p. 30 minutes prior; pentylenetetrazole 35 mg/kg. On the procedure: A 35 mg/kg subcutaneous dose of pentylenetetrazole was given and the percent outcome of seizure was recorded. Results were analyzed using ANOVA (Dunnett's test: *P<0.05).
Test subjects were given a test compound, followed by a 35 mg/kg dose of MET and observed for convulsions (FIG. 7).
as §1

Series [3] concerns Male Sprague-Dawley rats. The series is described as follows: Vogel conflict procedure. As to conditions: i.p. 30 minutes prior; KRM-II-81 significant at 10 mg/kg; chlordiazepoxide 20 mg/kg. On the procedure:
FIG. 10 is a graph of the concentration of KRM-II-81 versus percent of control for KRM-II-81 analyzed in the Vogel conflict procedure. After a baseline was established using a vehicle (1% 2-hydroxyethyl cellulose), male Sprague-Dawley rats (n=6-8) were dosed i.p. with either KRM-II-81 (3, 10, 30, or 60 mg/kg) or chlordiazepoxide (20 mg/kg) 30 minutes prior to testing. Results were analyzed using ANOVA (Dunnett's test: *P<0.05; Student t-test: **P<0.05).
Subjects are withheld from water prior to testing. Once given water during testing, they will either be unpunished, where they are free to drink without consequence, or punished, where a small electrical shock is applied after every 20th lick. In vehicle punished, is it is expected that the rats hesitate from drinking due to the anxiousness of being shocked. When given an anxiolytic, the […] will continue to drink water despite the electrical shock.
Experiments were conducted as described in the protocol of Alt et al. (Neuropharmacology 2007, 52, 1482-1487). […]
Apparatus. […] All events were controlled and licking data was recorded by a Compaq computer running MED-PC Version IV (Med Associates Inc., Georgia, Vt., USA).
Sipper tube training. […] The six minutes was broken into two components, the first three minutes was recorded as the unpunished component and the second three minutes were recorded as the punished component. […]

A further series deals with Male CD-1 mice. The series is described as follows: Maximal electroshock (MES)-induced convulsion protection. The following applies: i.p. 30 minutes prior to test. On the procedure: Male CD-1 mice (n=10) were dosed i.p. 30 minutes prior to being tested. Results were analyzed using ANOVA (Dunnett's test versus vehicle: *P<0.05).
The maximal electroshock (MES) assay is designed to determine how well a test compound can prevent seizures induced by applying a voltage stimuli to a mouse.
Mice were subjected to electrical induced tonic seizures and examined for anticonvulsant effects 30 minutes after treatment. Mice were then given a 7 mA electroshock using a Wahlquist Model H for 0.2 seconds and observed for the presence or absence of seizure activity. Each mouse is tested only once and euthanized immediately following the test.
A general note: Protection in the maximal electroshock model is a classic sign of anticonvulsant action.

A further series relates to Male NIH Swiss mice. The series is described as follows: Marble burying assay (anxiolytic). As for the experimental part: Male NIH Swiss mice (n=10) were dosed i.p. with vehicle (1% carboxymethyl cellulose) or one of the test compounds (10 or 30 mg/kg) 30 minutes prior to being tested in the marble burying assay.
The marble burying assay is designed to measure the anxiolytic-effect of a compound. When mice are nervous, they will bury marbles. As there becomes a decrease in amount of marbles buried, the better anxiolytic effect of a compound.
The marble burying assay is used to determine the anxiolytic activity of a given compound. Mice are placed in a tub containing 20 marbles placed over a bed of sawdust. Defensive burying (Broekkamp 1986) is the natural reaction for the mice. When given an anxiolytic, such as diazepam, the mice are less likely to defensively bury the marbles.
Experiments were carried out by the methods described in Li et al. (Life Sciences 2006, 78, 1933-1939). Separate groups of mice were used in these experiments and were conducted in a dimly lit testing room. After 60 min acclimation to the experimental room, mice were placed in a 17×28×12 cm high plastic tub with […] sawdust shavings (Harlan Sani-Chips, Harlan-Teklad, Indianapolis, Ind., USA) on the floor, which was covered with 20 blue marbles (1.5 cm diameter) placed in the center. […] The number of marbles buried (⅔ covered with sawdust) was counted and submitted to inter-observer reliability assessment.

`C#Cc1ccc2c(c1)C(c1ccccn1)=NCc1c(-c3cnco3)ncn1-2` [KRM-II-81, 5-(8-Ethynyl-6-(pyridin-2-yl)-4H-benzo[f]imidazo[1,5-a][1,4]diazepin-3-yl)oxazole]: the “dose of MET required for convulsion” value with Male Sprague-Dawley rats [1] (pretreated with 10 mg/kg i.p., PTZ infused i.v.) was determined as 71 mg/kg. Also, the “effect on seizure threshold to PTZ” value in the series on Male Sprague-Dawley rats [1] (test compound 3 to 60 mg/kg, diazepam 0.1 to 1 mg/kg i.p.) is “significantly increased the seizure threshold to PTZ; also recorded: larger maximal effect”. Also, in the series on Male Sprague-Dawley rats [2], the “dose achieving significant protection against scMET seizures” value was found to be 30 mg/kg. Also, in the series with Male Sprague-Dawley rats [3], the “punished licking compared to control” value is reported as “significant increase in punished licking”. In the series on Male CD-1 mice, the “protection against MES-induced seizures” value was “greater effectiveness than HZ-166; also recorded: fully protected against seizure induction”. Moreover, the “sedation observed in marble burying assay” value in the series on Male NIH Swiss mice (10 and 30 mg/kg i.p.) is “without observed signs of sedation”. The “anxiolytic activity in marble burying assay” value in the series with Male NIH Swiss mice (mouse, in vivo) is recorded as “better anxiolytic than HZ-166; also recorded: good activity in the marble burying”.
